Data as given in ChEMBL document CHEMBL5303304, “EUbOPEN Chemogenomics Library - IncuCyte” (2023).

Legend:
Assay type in all cases: toxicity, cell-based
HEK-293T = experiment: Incucyte cell viability with HEK293T; conditions: human, 10 µM, compound concentration 10 uM
Fibroblast = experiment: Incucyte cell viability with human fibroblast; conditions: 10 µM, compound concentration 10 uM
U2OS = experiment: Incucyte cell viability with U2OS; conditions: human, 10 µM, compound concentration 10 uM
Further: unitless GR value; below 1 slowed growth and below 0 cell loss.

| SMILES | Growth Rate (HEK-293T; 0 h, replicate number 1) | Growth Rate (HEK-293T; 0 h, replicate number 2) | Growth Rate (HEK-293T; 12 h, replicate number 2) | Growth Rate (HEK-293T; 18 h, replicate number 2) | Growth Rate (HEK-293T; 24 h, replicate number 2) | Growth Rate (Fibroblast; 0 h, replicate number 2) | Growth Rate (Fibroblast; 6 h, replicate number 1) | Growth Rate (Fibroblast; 12 h, replicate number 1) | Growth Rate (Fibroblast; 18 h, replicate number 2) | Growth Rate (Fibroblast; 24 h, replicate number 2) | Growth Rate (U2OS; 0 h, replicate number 1) | Growth Rate (U2OS; 18 h, replicate number 1) | Growth Rate (U2OS; 24 h, replicate number 1) | Growth Rate (U2OS; 24 h, replicate number 2) | Growth Rate (HEK-293T; 6 h, replicate number 2) | Growth Rate (HEK-293T; 18 h, replicate number 1) | Growth Rate (HEK-293T; 24 h, replicate number 1) | Growth Rate (U2OS; 0 h, replicate number 2) | Growth Rate (U2OS; 18 h, replicate number 2) | Growth Rate (Fibroblast; 6 h, replicate number 2) | other results |
| --- | --- | --- | --- | --- | --- | --- | --- | --- | --- | --- | --- | --- | --- | --- | --- | --- | --- | --- | --- | --- | --- |
| CN(C)CCCn1cc(C2=C(c3c[nH]c4ccccc34)C(=O)NC2=O)c2ccccc21 [GF-109203] | -0.26 | -0.46 | 0.81 | 0.99 | 0.98 | -0.49 | -0.72 | -1 | 0.65 | 0.41 | -0.01 | 0.94 | 0.8 | 0.82 |  |  |  |  |  |  |  |
| Cn1c2ccccc2c2c3c(c4c5ccccc5n(CCC#N)c4c21)CNC3=O [GO-6976] | -0.49 | -0.13 | -0.2 | -0.19 | -0.14 |  | -0.79 | -1 | 0.88 | 0.48 |  | 0.29 | 0.17 | 0.39 | 0.05 | 0.36 | 0.7 | -0.94 | 0.63 |  | Growth Rate (HEK-293T; 6 h, replicate number 1): 0.62; Growth Rate (HEK-293T; 12 h, replicate number 1): 0.69 |
| CC(=O)Nc1c(F)cc(C(=O)N[C@H]2CC[C@H](O)CC2)cc1O[C@@H](C)c1ccccc1 [GSK046] | 0.58 |  | 0.74 |  | 0.83 | 0.44 | 0.63 | 0.75 | 0.93 | 1 | -0.56 | 0.79 | 0.83 | 0.84 | 0.69 | 0.95 | 0.71 | 0.83 | 0.97 | 0.19 | Growth Rate (Fibroblast; 12 h, replicate number 2): 0.74; Growth Rate (Fibroblast; 18 h, replicate number 1): 0.6; Growth Rate (Fibroblast; 24 h, replicate number 1): 0.71; Growth Rate (U2OS; 6 h, replicate number 1): -0.86; Growth Rate (U2OS; 6 h, replicate number 2): 0.86; Growth Rate (U2OS; 12 h, replicate number 1): 0.72; Growth Rate (U2OS; 12 h, replicate number 2): 0.94 |
| CNC(=O)c1cc(C(=O)NC2CC2)cn(Cc2ccccc2)c1=O [GSK620] | -0.72 | 0.91 | 0.76 | 0.99 | 0.8 |  |  |  |  |  | -0.46 | 0.66 | 0.88 |  | 0.74 |  | 0.93 |  |  | 0.25 | Growth Rate (Fibroblast; 0 h, replicate number 1): 0.38; Growth Rate (U2OS; 6 h, replicate number 1): 0.54; Growth Rate (U2OS; 6 h, replicate number 2): 0.92; Growth Rate (U2OS; 12 h, replicate number 1): 0.69 |
